Key:
Cryptococcus neoformans [1] = test: Synergistic antifungal activity against Cryptococcus neoformans H99 assessed as fractional inhibitory concentration index incubated for 72 hrs in presence of P163-0892 by broth microdilution method; assay type: functional
[2] = system: Cryptococcus gattii species complex; test: Antifungal activity against Cryptococcus gattii clinical isolate SCZ20024 assessed as fungal growth inhibition incubated for 72 hrs in presence of P163-0892 by broth microdilution method; assay type: functional
Cryptococcus neoformans [3] = test: Antifungal activity against Cryptococcus neoformans H99 assessed as fungal growth inhibition incubated for 72 hrs in presence of P163-0892 by broth microdilution method; assay type: functional
Cryptococcus neoformans [4] = test: Antifungal activity against Cryptococcus neoformans clinical isolate HN17 assessed as fungal growth inhibition incubated for 72 hrs in presence of P163-0892 by broth microdilution method; assay type: functional
[5] = system: Cryptococcus gattii species complex; test: Synergistic antifungal activity against Cryptococcus gattii clinical isolate SCZ20031 assessed as fractional inhibitory concentration index incubated for 72 hrs in presence of P163-0892 by broth microdilution method; assay type: functional
Nakaseomyces glabratus [6] = test: Antifungal activity against Candida glabrata ATCC1182 assessed as fungal growth inhibition incubated for 48 hrs in presence of P163-0892 by broth microdilution method; assay type: functional
[7] = system: Cryptococcus deuterogattii; test: Antifungal activity against Cryptococcus gattii WM178 assessed as fungal growth inhibition incubated for 72 hrs in presence of P163-0892 by broth microdilution method; assay type: functional, Cryptococcus gattii species complex
Cryptococcus neoformans [8] = test: Antifungal activity against Cryptococcus neoformans clinical isolate HN19 assessed as fungal growth inhibition incubated for 72 hrs in presence of P163-0892 by broth microdilution method; assay type: functional
Cryptococcus neoformans [9] = test: Synergistic antifungal activity against Cryptococcus neoformans clinical isolate HN1 assessed as fractional inhibitory concentration index incubated for 72 hrs in presence of P163-0892 by broth microdilution method; assay type: functional
[10] = system: Cryptococcus gattii species complex; test: Antifungal activity against Cryptococcus gattii E566 assessed as fungal growth inhibition incubated for 72 hrs in presence of P163-0892 by broth microdilution method; assay type: functional
Cryptococcus neoformans [11] = test: Antifungal activity against Cryptococcus neoformans clinical isolate HN2 assessed as fungal growth inhibition incubated for 72 hrs in presence of P163-0892 by broth microdilution method; assay type: functional
Cryptococcus neoformans [12] = test: Synergistic antifungal activity against Cryptococcus neoformans clinical isolate SH68 assessed as fractional inhibitory concentration index incubated for 72 hrs in presence of P163-0892 by broth microdilution method; assay type: functional
Cryptococcus neoformans [13] = test: Synergistic antifungal activity against Cryptococcus neoformans clinical isolate 444 assessed as fractional inhibitory concentration index incubated for 72 hrs in presence of P163-0892 by broth microdilution method; assay type: functional
Cryptococcus neoformans [14] = test: Synergistic antifungal activity against Cryptococcus neoformans clinical isolate HN15 assessed as fractional inhibitory concentration index incubated for 72 hrs in presence of P163-0892 by broth microdilution method; assay type: functional
[15] = system: Cryptococcus gattii species complex; test: Synergistic antifungal activity against Cryptococcus gattii E566 assessed as fractional inhibitory concentration index incubated for 72 hrs in presence of P163-0892 by broth microdilution method; assay type: functional
[16] = system: Cryptococcus deuterogattii; test: Antifungal activity against Cryptococcus gattii WM178 infected in Wax moth larvae assessed as survival rate at 10 mg/kg measured after 9 days in presence of P163-0892 by Kaplan-Meier method; assay type: functional, Cryptococcus gattii species complex; settings: WM178, 216 h, time 9 day
Cryptococcus neoformans [17] = test: Antifungal activity against Cryptococcus neoformans H99 infected in Wax moth larvae assessed as survival rate at 10 mg/kg measured after 9 days in presence of P163-0892 by Kaplan-Meier method; assay type: functional; settings: H99, 216 h, time 9 day
Cryptococcus neoformans [18] = test: Synergistic antifungal activity against Cryptococcus neoformans clinical isolate HN17 assessed as fractional inhibitory concentration index incubated for 72 hrs in presence of P163-0892 by broth microdilution method; assay type: functional
[19] = system: Cryptococcus deuterogattii; test: Antifungal activity against Cryptococcus gattii WM178 assessed as reduction on fungal growth at 2 ug/ml incubated for 48 hrs by plate reader assay; assay type: functional, Cryptococcus gattii species complex; set-up: scale not given: the % may be the effect or the level left; settings: dose 2 µg/ml
[20] = Oral bioavailability in Sprague-Dawley rat at 5 mg/kg by LC-MS/MS analysis; assay type: ADME, organism-based; settings: in vivo
[21] = Half life in Sprague-Dawley rat at 5 mg/kg,po by LC-MS/MS analysis; assay type: ADME, organism-based; settings: in vivo
[22] = system: Cryptococcus gattii species complex; test: Synergistic antifungal activity against Cryptococcus gattii E566 assessed as fractional inhibitory concentration index incubated for 72 hrs in presence of Fluconazole by broth microdilution method; assay type: functional
[23] = system: Cryptococcus gattii species complex; test: Synergistic antifungal activity against Cryptococcus gattii clinical isolate SCZ20031 assessed as fractional inhibitory concentration index incubated for 72 hrs in presence of Fluconazole by broth microdilution method; assay type: functional
Cryptococcus neoformans [24] = test: Synergistic antifungal activity against Cryptococcus neoformans clinical isolate HN20 assessed as fractional inhibitory concentration index incubated for 72 hrs in presence of Fluconazole by broth microdilution method; assay type: functional
Cryptococcus neoformans [25] = test: Antifungal activity against Cryptococcus neoformans clinical isolate 444 assessed as fungal growth inhibition incubated for 72 hrs in presence of Fluconazole by broth microdilution method; assay type: functional
[26] = biological target: Voltage-gated inwardly rectifying potassium channel KCNH2 (Homo sapiens, UniProt Q12809); test: Inhibition of human […] potassium channel by automated patch clamp electrophysiology; assay type: toxicity
[27] = C0 in Sprague-Dawley rat at 2 mg/kg,iv by LC-MS/MS analysis; assay type: ADME, organism-based; settings: in vivo
[28] = Half life in Sprague-Dawley rat at 2 mg/kg,iv by LC-MS/MS analysis; assay type: ADME, organism-based; settings: in vivo
Cryptococcus neoformans [29] = test: Synergistic antifungal activity against Cryptococcus neoformans H99 assessed as fractional inhibitory concentration index incubated for 72 hrs in presence of Fluconazole by broth microdilution method; assay type: functional
Candida albicans = test: Synergistic antifungal activity against Candida albicans SC5314 assessed as fractional inhibitory concentration index incubated for 48 hrs in presence of Fluconazole by broth microdilution method; assay type: functional
Cryptococcus neoformans [30] = test: Synergistic antifungal activity against Cryptococcus neoformans clinical isolate 443 assessed as fractional inhibitory concentration index incubated for 72 hrs in presence of Fluconazole by broth microdilution method; assay type: functional
Nakaseomyces glabratus [31] = test: Synergistic antifungal activity against Candida glabrata ATCC1182 assessed as fractional inhibitory concentration index incubated for 48 hrs in presence of Fluconazole by broth microdilution method; assay type: functional
[32] = system: Cryptococcus deuterogattii; test: Antifungal activity against Cryptococcus gattii WM178 infected in Wax moth larvae assessed as survival rate at 10 mg/kg measured after 9 days in presence of Fluconazole by Kaplan-Meier method; assay type: functional, Cryptococcus gattii species complex; settings: WM178, 216 h, time 9 day
[33] = Selectivity index, ratio of IC50 for human HUVEC to MIC for antifungal activity against Cryptococcus neoformans; assay type: toxicity; settings: HUVEC cells, read-out: Selectivity Index
Pichia kudriavzevii = test: Antifungal activity against Candida krusei ATCC2340 assessed as fungal growth inhibition incubated for 48 hrs in presence of Fluconazole by broth microdilution method; assay type: functional
Candida tropicalis = test: Antifungal activity against Candida tropicalis ATCC20026 assessed as fungal growth inhibition incubated for 48 hrs in presence of Fluconazole by broth microdilution method; assay type: functional
Nakaseomyces glabratus [34] = test: Antifungal activity against Candida glabrata ATCC1182 assessed as fungal growth inhibition incubated for 48 hrs in presence of Fluconazole by broth microdilution method; assay type: functional
Candida parapsilosis = test: Antifungal activity against Candida parapsilosis ATCC22019 assessed as fungal growth inhibition incubated for 48 hrs by broth microdilution method; assay type: functional; settings: Lodderomyces parapsilosis
[Candida] auris = Antifungal activity against Candida auris CBS 12372 assessed as fungal growth inhibition incubated for 48 hrs in presence of Fluconazole by broth microdilution method; assay type: functional; settings: Candidozyma auris

Chain of Voltage-gated inwardly rectifying potassium channel KCNH2 (Q12809 whole entry): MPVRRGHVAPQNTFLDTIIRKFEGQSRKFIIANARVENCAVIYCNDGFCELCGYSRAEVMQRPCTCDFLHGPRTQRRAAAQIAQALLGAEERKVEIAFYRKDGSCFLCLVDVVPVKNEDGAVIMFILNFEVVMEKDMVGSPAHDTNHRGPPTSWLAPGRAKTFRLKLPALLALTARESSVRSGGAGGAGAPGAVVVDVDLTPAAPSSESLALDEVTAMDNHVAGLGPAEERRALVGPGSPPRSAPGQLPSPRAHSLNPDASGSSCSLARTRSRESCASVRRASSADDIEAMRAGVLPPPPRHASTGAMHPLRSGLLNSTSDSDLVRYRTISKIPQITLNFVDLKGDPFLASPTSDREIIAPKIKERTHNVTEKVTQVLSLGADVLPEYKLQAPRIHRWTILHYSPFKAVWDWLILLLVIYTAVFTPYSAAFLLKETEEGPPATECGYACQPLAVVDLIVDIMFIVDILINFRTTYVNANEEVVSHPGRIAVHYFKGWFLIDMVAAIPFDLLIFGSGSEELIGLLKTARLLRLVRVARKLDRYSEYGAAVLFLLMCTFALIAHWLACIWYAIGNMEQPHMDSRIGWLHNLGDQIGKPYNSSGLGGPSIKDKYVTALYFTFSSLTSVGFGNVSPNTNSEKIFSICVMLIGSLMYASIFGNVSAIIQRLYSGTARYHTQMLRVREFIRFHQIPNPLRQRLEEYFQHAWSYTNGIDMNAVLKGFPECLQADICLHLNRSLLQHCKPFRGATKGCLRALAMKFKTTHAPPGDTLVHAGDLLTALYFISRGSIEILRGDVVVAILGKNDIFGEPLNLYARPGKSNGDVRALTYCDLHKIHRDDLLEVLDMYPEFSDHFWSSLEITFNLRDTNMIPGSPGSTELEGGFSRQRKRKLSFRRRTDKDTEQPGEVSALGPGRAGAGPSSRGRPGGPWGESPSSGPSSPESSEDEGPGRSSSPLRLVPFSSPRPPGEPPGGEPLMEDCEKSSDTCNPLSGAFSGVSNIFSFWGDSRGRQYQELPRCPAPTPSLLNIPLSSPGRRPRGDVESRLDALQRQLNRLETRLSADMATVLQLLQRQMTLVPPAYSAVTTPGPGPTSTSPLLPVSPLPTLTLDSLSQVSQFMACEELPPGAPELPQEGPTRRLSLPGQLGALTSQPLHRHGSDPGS

In the case of `OC(Cn1cncn1)(Cn1cncn1)c1ccc(F)cc1F` [FLUCONAZOLE], the “fractional inhibitory concentration index (FICI)” value (Cryptococcus neoformans [1]) is reported as 0.375, the MIC [2] is reported as 1 µg/mL and the MIC (Cryptococcus neoformans [3]) is reported as 2 µg/mL. For the same compound, the MIC (Cryptococcus neoformans [4]) was 0.5 µg/mL, the “fractional inhibitory concentration index (FICI)” value [5] was 0.25 and the MIC (Nakaseomyces glabratus [6]) was 4 µg/mL. The MIC [7] was 0.5 µg/mL, the MIC (Cryptococcus neoformans [8]) was 1 µg/mL and the “fractional inhibitory concentration index (FICI)” value (Cryptococcus neoformans [9]) was 0.125. For the same compound, the MIC [10] was 0.5 µg/mL, the MIC (Cryptococcus neoformans [11]) was 0.25 µg/mL and the “fractional inhibitory concentration index (FICI)” value (Cryptococcus neoformans [12]) was 0.25. The “fractional inhibitory concentration index (FICI)” value (Cryptococcus neoformans [13]) was 0.156, the “fractional inhibitory concentration index (FICI)” value (Cryptococcus neoformans [14]) was 0.313 and the “fractional inhibitory concentration index (FICI)” value [15] was 0.188. For the same compound, the survival at 10 mg/kg [16] was 70%, the survival at 10 mg/kg (Cryptococcus neoformans [17]) was 65% and the “fractional inhibitory concentration index (FICI)” value (Cryptococcus neoformans [18]) was 0.156.

In the case of `CCCCNC(=O)c1c(O)c2sccc2n(Cc2ccccc2)c1=O`, the Activity [19] is reported as 45.5%, the bioavailability [20] is reported as 0.8% and the half-life [21] is reported as 15.3 h. For the same compound, the “fractional inhibitory concentration index (FICI)” value [22] was 0.188, the “fractional inhibitory concentration index (FICI)” value [23] was 0.25 and the “fractional inhibitory concentration index (FICI)” value (Cryptococcus neoformans [24]) was 0.375. For the same compound, the MIC (Cryptococcus neoformans [25]) was 0.0156 µg/mL, the IC50 [26] was 23.4 µM and the C0 [27] was 2460 ng/mL. The t1/2 [28] was 7.61 h, the “fractional inhibitory concentration index (FICI)” value (Cryptococcus neoformans [29]) was 0.375 and the “fractional inhibitory concentration index (FICI)” value (Candida albicans) was 1.008. For the same compound, the “fractional inhibitory concentration index (FICI)” value (Cryptococcus neoformans [30]) was 0.156, the “fractional inhibitory concentration index (FICI)” value (Nakaseomyces glabratus [31]) was 0.625 and the survival at 10 mg/kg [32] was 70%. For the same compound, the selectivity ratio [33] was greater than 256, the MIC (Pichia kudriavzevii) was 8 µg/mL and the MIC (Candida tropicalis) was 2 µg/mL. The MIC (Nakaseomyces glabratus [34]) was 16 µg/mL, the MIC (Candida parapsilosis) was greater than 64 µg/mL and the MIC ([Candida] auris) was 1 µg/mL.

— ChEMBL document CHEMBL5137080, “Discovery of Novel 7-Hydroxy-5-oxo-4,5-dihydrothieno[3,2-b]pyridine-6-carboxamide Derivatives with Potent and Selective Antifungal Activity against Cryptococcus Species” (J Med Chem, 2022)
